Data: US6740678B2, “Method of treatment of cardiovascular injuries” (Children's Medical Center Corporation, priority 1998, dated 2004)

Experiments:
Apo E-/-mice [1] = test: Extent of atherosclerosis in the entire aorta (Sudan IV stained lesions, photographed aortas); type: in vivo; conditions: for Median percent plaque area of the entire aorta (Sudan IV-positive lesions): early-stage experiment, treated age 6 to 22 weeks, control 14.4%; for Plaque surface area on photographed images of the entire aorta: treated 20 to 36 weeks, not shown
Source text: (§1) After 16 weeks of treatment, animals were euthanized with methoxyflurane. A blood sample was obtained from the right ventricle for the analysis of serum cholesterol, performed by an automated calorimetric assay on a Hitachi 917 instrument (Children's Hospital, Boston, Mass.). The heart and aorta were perfusion-fixed with 2% paraformaldehyde and dissected as described (Palinski, W., et al., Arterioscler. Thromb. 14: 605-16, 1994; Tangirala, R. K., et al., J. Lipid Res. 36:2320-8, 1995). Atherosclerotic plaques in the aortas were used for histology and plaque areas were only determined at the aortic origin (Paigen, B., et al., Artherosclerosis 68: 231-40, 1987). However, to document the extent of disease in the total aorta, the unopened aortas were photographed.
(§2) The effects of these angiogenesis inhibitors on late stage lesions were then compared to their effects on early lesions, in which intimal vessels were rarely observed. Animals were treated with endostatin or TNP-470 from age 32 to 48 weeks (late-stage experiment) or from 6 to 22 weeks (early-stage experiment). Plaque involvement was measured at the aortic origin. Since the aortas from early stage animals were not used for immunohistochemistry in these experiments, the extent of atherosclerosis was also measured in the entire aorta (percent surface area of Sudan IV stained-lesions; Paliniski, W., et al., Arteriosclr. Thromb. 14: 605-16, 1994).
(§3) Plaque Area. To determine the extent of atherosclerosis at the aortic origin, 40 serial sections (8-10 Tm thickness) of the aortic sinus were collected on 10 slides (Paigen, B., et al., Artherosclerosis 68: 231-40, 1987). Every second slide was stained with hematoxylin and eosin for morphometry. The rest were used for immunohistochemistry to count intimal vessels and determine intimal smooth muscle cell contents. Plaque images were captured at 100× magnification with a Hitachi HV-C20 3CCD digital camera and measured with the Leica Q500MC image analysis program (Dong, Z. M., et al., J. Clin. Invest. 102: 145-52, 1998). Lesion area for each animal was reported as the mean intimal cross-sectional area (mm^2). In the early-stage experiment, plaque involvement in the entire aorta was also measured by image analysis as the percentage of aortic surface area covered with lesions (Tangiala, R. K., et al., J. Lipid. Res. 36: 2320-8, 1995; Dong, Z. M., et al., J. Clin. Invest. 102: 145-52, 1998)

angiogenesis = conditions: corneal micropocket assay; Ingber 1990; cited from earlier work
[2] = Animal health, weight and tolerability during treatment; type: in vivo, mice
Procedure: Animal health and weight was monitored throughout treatment.
(§4) The Apo E-/-mice received 20 mg/kg of endostatin subcutaneously every day.

Apo E-/-mice [3] = test: Intimal smooth muscle cell content of aortic sinus lesions; type: in vivo; conditions: median (range), control 20.4
Procedure: Smooth muscle cells were identified with a monoclonal IgG2a antibody against human smooth muscle cell I actin (Dako, M0851; Nakashima, Y., et al, Arteriocler. Thromb. 14: 133-40, 1994). Sections were immersed in 0.1 M sodium citrate, pH 6.0 and heated for 10 minutes in the microwave. Primary antibody was bound to sections at 3 Tg/ml and then visualized with biotinylated anti-mouse IgG2a antibody (1:200 dilution, Amersham RPN1181) and the ABC method described above. The adjacent medial layer of vessels served as positive control.
Intimal smooth muscle cell content. To determine if angiogenesis inhibitor treatments affected smooth muscle cell migration or proliferation in lesions, two slides from the middle of the aortic sinus were stained for smooth muscle cell α actin. For each animal, the number of intimal smooth muscle cells and total cell nuclei were counted in 8 non-overlapping fields. A smooth muscle cell was counted only if it stained for smooth muscle cell α actin and its cell nucleus was seen. The mean percentage of smooth muscle cells relative to total cells was determined for each animal.

Apo E-/-mice [4] = test: Intimal vessels in aortic sinus plaques by immunohistochemistry (CD31, vWf); type: in vivo; conditions: for Neovascularization (+) aortic sinus plaques (number): of 22 (endostatin) and 27 (TNP-470) plaques, control 7 of 24; for Percentage of aortic sinus plaques that contained any intimal vessels: treated mice, control 29%
Procedure: To detect intimal capillaries, the hearts and portions of the descending aorta with substantial lesions were embedded in paraffin, sectioned (10 μm), digested with 0.02% protease XXIV (Sigma) for 6 minutes at room temperature, and incubated with rabbit polyclonal anti-human vWf antibody (Dako, Carpinteria, Calif., 1:500 dilution) or rat monoclonal anti-mouse CD31 antibody (Pharmigen, San Diego, Calif., 20 Tg/ml). When acetone-fixed frozen sections were stained, the CD31 antibody was used at 5 Tg/ml. The bound antibodies against vWf or CD31 were detected with biotinylated goat anti-rabbit or rabbit anti-rat (mouse absorbed) antibodies (Vector, Burlinghame, Calif., 1:250 dilution) and the avidin-biotin peroxidase complex (ABC standard kit, Vector). A red reaction product was produced with 3-amino-9-ethyl carbazole substrate (AEC, Dako) and sections were counterstained with Gill's hematoxylin (Sigma). Vascular sections incubated with non-immune serum served as negative controls. Positive staining of the endothelium on the lumen and in adventitial capillaries served as an internal control. Intimal vessels were identified under high power (400×) and counted when both an endothelial cell nucleus and lumen were seen and when the vessel was also observed in an adjacent section.
as §3

Apo E-/-mice [5] = test: Plaque area at the aortic origin in cholesterol-fed Apo E-/- mice; type: in vivo; conditions: for Plaque measurements at the aortic origin versus control: early-stage experiment, treated age 6 to 22 weeks, not shown; for Inhibition of plaque growth: age 20 to 36 weeks, [100][1-(median treated-0.25)/(median control-0.25)]
Source text: Male Apo E-/-mice (Jackson Labs, Bangor Me.) were fed a 0.15% cholesterol diet (Western Type #88137, Teklad) from age 6-8 weeks. At 20 weeks of age, ten animals were sacrificed to evaluate the baseline extent of atherosclerosis.
as §1, §2, §4
The fumagillin analogue TNP-470 was provided for these studies by TAP Holdings, Deerfield Ill. An injection solution of TNP-470 (3 mg/ml) was freshly prepared and mice received 30 mg/kg subcutaneously every other day. Control animals received a similar volume of saline or endostatin buffer.
as §3

Apo E-/-mice [6] = test: Plaque cell density of aortic sinus lesions; type: in vivo; conditions: aortic sinus plaques, median (range), control 1183
Procedure: Plaque cell density. Cell densities in aortic sinus plaques were evaluated to determine if endostatin or TNP-470 treatments affected lesion cellularity. Cell nuclei in the intima of the aortic sinus plaques were counted at three mid-lesion levels (slides 4, 6, and 8). Cell density was reported as the number of cells per intimal area (cells/mm^2).

primary tumor growth = conditions: 20 mg/kg per day s.c.; Boehm 1997; cited from earlier work
[7] = first experiment, treated age 20 to 36 weeks, endostatin 20 mg/kg s.c. daily, TNP-470 30 mg/kg s.c. every other day, control 0.751, baseline 0.250
[8] = late-stage experiment, treated age 32 to 48 weeks, control 0.584
[9] = second experiment, treated 20 to 36 weeks, control 0.690

Substance	Median percent plaque area of the entire aorta (Sudan IV-positive lesions) (Apo E-/-mice [1])	Plaque surface area on photographed images of the entire aorta (Apo E-/-mice [1])	SMC (%), median smooth muscle cell content of aortic sinus lesions (Apo E-/-mice [3])	Neovascularization (+) aortic sinus plaques (number) (Apo E-/-mice [4])	Percentage of aortic sinus plaques that contained any intimal vessels (Apo E-/-mice [4])	Plaque measurements at the aortic origin versus control (Apo E-/-mice [5])	Inhibition of plaque growth (Apo E-/-mice [5]; first experiment)	Median plaque area at the aortic origin (Apo E-/-mice [5]; [7])	Median plaque area at the aortic origin (Apo E-/-mice [5]; [8])	Median plaque area at the aortic origin (Apo E-/-mice [5]; [9])	also measured
O-chloracetyl-carbamoylfumagillol [TNP-470]	11.7%	noticeable reduction	19.8 (14.6-23.5) %	0	0%	no difference	70%	0.402 mm^2	0.448 mm^2	0.370 mm^2	Inhibition of angiogenesis (angiogenesis): 70%; Percentage of animals available for analysis ([2]; all studies, control 91%): 89%; Weight gained during treatment ([2]; treated age 20 to 36 weeks, control 8 g): 4 g; Median weight after treatment ([2]; treated age 20 to 36 weeks, control 35 g): 31 g; Final weight ([2]; treated age 32 to 48 weeks, control 35 g): 33 g
endostatin	9.6%	noticeable reduction	19.4%	1	5%	no difference	85%	0.321 mm^2	0.422 mm^2	0.475 mm^2	Tolerability of injections ([2]; 20 mg/kg s.c. every day): tolerated the injections; Percentage of animals available for analysis ([2]; mouse, in vivo): 92%; SMC (%), median smooth muscle cell content of aortic sinus lesions (Apo E-/-mice [3]; listed as Endostatin): 19.4 (16.2-22.7) %; Cell Density, median (Apo E-/-mice [6]): 1645 cells/mm^2; Cell Density, median (Apo E-/-mice [6]; listed as Endostatin): 1646 (962-2361) cells/mm^2; Inhibition of primary tumor growth (primary tumor growth): over 95%
